Read-outs that look alike come from different tables or passages of the source.
Experiments:
OXA-40 = OXA-40 (Acinetobacter baumannii, UniProt Q8RLA6); assay: β-lactamase inhibitory activity, IC50 (nitrocefin hydrolysis); format: biochemical
Description: (§2) Enzymes were cloned in E. coli expression vector, expressed and purified in house using classical procedures. […] After 30 min of pre-incubation at room temperature, 15 μL of NCF (100 μM final) were finally added in each well. […] Enzyme activity was obtained by subtracting the background from the final signal, and was converted to enzyme inhibition using non inhibited wells. IC50 curves were fitted to a classical Langmuir equilibrium model with Hill slope using XLFIT (IDBS).

P99 ampC = P99 ampC (Enterobacter cloacae, UniProt P05364); assay: as above; format: biochemical
Description: (§3) Method 1: β-Lactamase Inhibitory Activity, Determination of IC50 (Table 1)
as §2

PAE ampC = PAE ampC (Pseudomonas aeruginosa, UniProt P24735); assay: as above; format: biochemical, P. aeruginosa
Description: as §2

SHV-1 = SHV-1 (Klebsiella pneumoniae, UniProt P0AD64); assay: as above; format: biochemical
Chain of SHV-1 (P0AD64 22-286): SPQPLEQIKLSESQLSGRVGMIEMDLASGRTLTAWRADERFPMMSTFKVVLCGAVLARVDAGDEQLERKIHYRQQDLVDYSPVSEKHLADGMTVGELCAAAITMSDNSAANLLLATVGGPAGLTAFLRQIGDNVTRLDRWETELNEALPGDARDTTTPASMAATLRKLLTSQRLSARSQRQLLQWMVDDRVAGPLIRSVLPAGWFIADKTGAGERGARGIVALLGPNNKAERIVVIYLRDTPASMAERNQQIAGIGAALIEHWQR
Description: as §2

OXA-1 = OXA-1 (Escherichia coli, UniProt P13661); assay: as above; format: biochemical
Chain of OXA-1 (P13661 26-276): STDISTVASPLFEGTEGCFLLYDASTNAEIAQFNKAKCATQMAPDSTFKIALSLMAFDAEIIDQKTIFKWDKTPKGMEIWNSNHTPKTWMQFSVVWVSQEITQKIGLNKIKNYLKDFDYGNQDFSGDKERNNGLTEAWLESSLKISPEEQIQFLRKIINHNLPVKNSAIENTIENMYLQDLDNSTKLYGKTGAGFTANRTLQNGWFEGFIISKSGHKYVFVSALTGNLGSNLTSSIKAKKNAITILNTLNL
Description: as §2

[1] = tested on: Serratia marcescens (SMA) isolates; assay: MIC of compounds alone and combined with antibacterials, broth microdilution (CLSI); format: cell-based; conditions: Serratia marcescens, read-out: MIC
Summary of the method: (§1)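 Log-phase isolates were inoculated at a final 5.10^5 CFU/mL in cation-adjusted Mueller-Hinton broth and incubated 16-20 h at 35° C in ambient air. MIC was the lowest concentration preventing visible growth; for combinations, the antibacterial MIC was read at each compound concentration.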

[2] = tested on: Klebsiella pneumoniae (KPN) isolates; assay: as above; format: cell-based; conditions: Klebsiella pneumoniae, read-out: MIC
Summary of the method: as §1

[3] = tested on: Citrobacter murliniae (CMU) isolates; assay: as above; format: cell-based; conditions: Citrobacter murliniae; CMU 210102; alone; read-out: MIC
Summary of the method: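 Growth inhibition was read visually after 16-20 h at 35° C, giving compound MICs and antibacterial MICs at each fixed compound level. Bacteria in log phase were inoculated at 5.10^5 CFU/mL in ca-MHB onto DMSO-spotted compound or compound/antibacterial dilutions per CLSI microdilution.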

CTX-M-15 = CTX-M-15 (Escherichia coli, UniProt Q9EXV5); assay: β-lactamase inhibitory activity, IC50 (nitrocefin hydrolysis); format: biochemical
Chain of CTX-M-15 (Q9EXV5 entry or part of it): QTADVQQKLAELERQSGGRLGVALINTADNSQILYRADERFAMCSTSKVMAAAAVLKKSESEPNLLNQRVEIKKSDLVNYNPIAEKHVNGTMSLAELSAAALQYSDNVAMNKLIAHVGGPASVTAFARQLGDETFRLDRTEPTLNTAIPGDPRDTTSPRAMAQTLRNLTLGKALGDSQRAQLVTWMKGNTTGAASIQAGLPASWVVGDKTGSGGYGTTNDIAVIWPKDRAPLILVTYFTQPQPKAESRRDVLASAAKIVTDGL
Description: as §3, §2

[4] = strain SMA UFR140, compound alone
[5] = strain SMA UFR238, compound alone
[6] = strain KPN 140347, compound alone
[7] = strain KPN UFR162, compound alone
[8] = strain KPN UFR163, compound alone
[9] = strain KPN UFR164, compound alone
[10] = strain KPN UFR165, compound alone
[11] = strain KPN UFR166, compound alone
[12] = strain KPN UFR167, compound alone
[13] = strain KPN UFR168, compound alone
[14] = strain KPN UFR169, compound alone
[15] = strain KPN UFR170, compound alone
[16] = strain KPN UFR171, compound alone
[17] = strain KPN UFR172, compound alone
[18] = strain KPN UFR229O, compound alone

Chain of PAE ampC (P24735 27-397): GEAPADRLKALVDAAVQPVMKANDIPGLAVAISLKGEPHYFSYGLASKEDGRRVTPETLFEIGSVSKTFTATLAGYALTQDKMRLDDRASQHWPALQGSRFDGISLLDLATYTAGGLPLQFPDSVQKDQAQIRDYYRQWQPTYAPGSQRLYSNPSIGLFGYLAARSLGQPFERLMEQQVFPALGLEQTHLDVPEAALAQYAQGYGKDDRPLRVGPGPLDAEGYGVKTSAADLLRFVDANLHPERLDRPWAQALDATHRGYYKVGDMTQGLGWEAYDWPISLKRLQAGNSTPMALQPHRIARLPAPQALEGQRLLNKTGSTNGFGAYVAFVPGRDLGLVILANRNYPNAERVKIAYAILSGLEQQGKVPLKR
Chain of P99 ampC (P05364 21-381): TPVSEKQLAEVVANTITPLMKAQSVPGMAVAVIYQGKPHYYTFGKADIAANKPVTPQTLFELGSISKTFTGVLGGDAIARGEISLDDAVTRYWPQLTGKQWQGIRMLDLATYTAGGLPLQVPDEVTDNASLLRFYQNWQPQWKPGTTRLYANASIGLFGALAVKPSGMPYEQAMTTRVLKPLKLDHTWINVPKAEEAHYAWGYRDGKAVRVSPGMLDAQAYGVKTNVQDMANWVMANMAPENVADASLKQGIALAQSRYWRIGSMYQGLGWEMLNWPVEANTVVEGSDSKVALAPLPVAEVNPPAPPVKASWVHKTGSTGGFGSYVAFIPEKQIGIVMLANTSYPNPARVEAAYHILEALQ
Chain of OXA-40 (Q8RLA6 entry or part of it): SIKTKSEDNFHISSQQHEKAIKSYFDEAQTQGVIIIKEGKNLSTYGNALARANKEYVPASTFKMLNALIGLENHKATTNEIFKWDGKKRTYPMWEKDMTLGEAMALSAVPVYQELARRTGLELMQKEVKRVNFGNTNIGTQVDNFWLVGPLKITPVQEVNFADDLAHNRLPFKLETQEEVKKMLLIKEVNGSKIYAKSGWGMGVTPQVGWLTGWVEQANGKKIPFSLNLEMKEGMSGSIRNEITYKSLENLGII

In the case of O=C1N2CC(n3cccn3)=CC(C2)N1OC(F)(F)C(=O)[O-].[Li+] (stereo not shown) [AF3], the IC50 (OXA-40) is reported as 8900 nM, the IC50 (P99 ampC) is reported as 270 nM and the IC50 (PAE ampC) is reported as 98 nM. The IC50 (SHV-1) was 6 nM, the IC50 (OXA-1) was 1100 nM and the MIC ([1]; SMA UFR30, alone) was 8 µg/mL. For the same compound, the MIC ([1]; SMA UFR134, alone) was 32 µg/mL, the MIC ([1]; SMA UFR135, alone) was > 32 µg/mL and the MIC ([1]; SMA UFR136, alone) was > 32 µg/mL. It also gave an MIC ([1]; SMA UFR137, alone) of 32 µg/mL, an MIC ([1]; SMA UFR138, alone) of 16 µg/mL and an MIC ([1]; SMA UFR139, alone) of 32 µg/mL. The MIC ([1]; SMA UFR141, alone) was 32 µg/mL, the MIC ([1]; SMA UFR142, alone) was > 32 µg/mL and the MIC ([1]; SMA UFR143, alone) was 32 µg/mL. For the same compound, the MIC ([1]; SMA UFR239, alone) was 16 µg/mL, the MIC [1, 4] was > 32 µg/mL and the MIC [1, 5] was 32 µg/mL. It also gave an MIC ([2]; BAA1898, KPN BAA-1898, alone) of 16 µg/mL, an MIC ([2]; KPN 6299, alone) of 16 µg/mL and an MIC ([2]; KPN 110376, alone) of 16 µg/mL. For the same compound, the MIC ([2]; KPN 121206, alone) was 16 µg/mL, the MIC ([2]; KPN 131119, alone) was 8 µg/mL and the MIC ([2]; KPN 140513, alone) was 32 µg/mL. The MIC ([2]; KPN 160143, alone) was 4 µg/mL, the MIC ([2]; KPN 190128, alone) was 32 µg/mL and the MIC ([2]; KPN 190270, alone) was 32 µg/mL. The MIC ([2]; KPN 190425, alone) was 16 µg/mL, the MIC ([2]; KPN 190551, alone) was 4 µg/mL and the MIC ([2]; KPN 200047, alone) was 4 µg/mL. The MIC ([2]; KPN 200327, alone) was 4 µg/mL, the MIC ([2]; KPN 260251, alone) was 16 µg/mL and the MIC ([2]; KPN 260252, alone) was > 32 µg/mL. The MIC ([2]; KPN 260376, alone) was 4 µg/mL, the MIC ([2]; KPN 270077, alone) was > 32 µg/mL and the MIC ([2]; KPN 700603, alone) was 32 µg/mL. The MIC ([2]; KPN ARA, alone) was 8 µg/mL, the MIC ([2]; KPN LIB, alone) was 8 µg/mL and the MIC ([2]; KPN UFR22_O, alone) was 16 µg/mL. The MIC ([2]; KPN UFR23, alone) was 8 µg/mL, the MIC ([2]; KPN UFR24, alone) was 32 µg/mL and the MIC ([2]; KPN UFR25, alone) was 8 µg/mL. The MIC ([2]; KPN UFR27, alone) was 16 µg/mL, the MIC ([2]; KPN UFR28, alone) was 16 µg/mL and the MIC ([2]; KPN UFR33, alone) was > 32 µg/mL. It also gave an MIC ([2]; KPN UFR42, alone) of 16 µg/mL, an MIC ([2]; KPN UFR43, alone) of 8 µg/mL and an MIC ([2]; KPN UFR46, alone) of 32 µg/mL. It also gave an MIC ([2]; KPN UFR53, alone) of 8 µg/mL, an MIC ([2]; KPN UFR65, alone) of 32 µg/mL and an MIC ([2]; KPN UFR66, alone) of 32 µg/mL. The MIC ([2]; KPN UFR67, alone) was 32 µg/mL, the MIC ([2]; KPN UFR68, alone) was 16 µg/mL and the MIC ([2]; KPN UFR76, alone) was > 32 µg/mL. The MIC ([2]; KPN UFR77, alone) was 8 µg/mL, the MIC ([2]; KPN UFR78, alone) was > 32 µg/mL and the MIC ([2]; KPN UFR79, alone) was 32 µg/mL. The MIC ([2]; KPN UFR80, alone) was 32 µg/mL, the MIC ([2]; KPN UFR81, alone) was 16 µg/mL and the MIC ([2]; KPN UFR215, alone) was 32 µg/mL. It also gave an MIC ([2]; KPN UFR216, alone) of 4 µg/mL, an MIC ([2]; KPN UFR217, alone) of 8 µg/mL and an MIC ([2]; KPN UFR218, alone) of 4 µg/mL. For the same compound, the MIC ([2]; KPN UFR219, alone) was 16 µg/mL, the MIC ([2]; KPN UFR220, alone) was 4 µg/mL and the MIC ([2]; KPN UFR221, alone) was 4 µg/mL. For the same compound, the MIC ([2]; KPN UFR222, alone) was 8 µg/mL, the MIC ([2]; KPN UFR227O, alone) was > 32 µg/mL and the MIC [2, 6] was 32 µg/mL. The MIC [2, 7] was 16 µg/mL, the MIC [2, 8] was 16 µg/mL and the MIC [2, 9] was 16 µg/mL. The MIC [2, 10] was 16 µg/mL, the MIC [2, 11] was > 32 µg/mL and the MIC [2, 12] was > 32 µg/mL. The MIC [2, 13] was 16 µg/mL, the MIC [2, 14] was > 32 µg/mL and the MIC [2, 15] was 16 µg/mL. For the same compound, the MIC [2, 16] was 8 µg/mL, the MIC [2, 17] was 8 µg/mL and the MIC [2, 18] was 32 µg/mL. For the same compound, the MIC [3] was 16 µg/mL and the IC50 (CTX-M-15) was 0.66 nM.

O=C1N2CC(c3ncco3)=CC(C2)N1OC(F)(F)C(=O)[O-].[Li+] (stereo not shown) [AF2] gave an IC50 (OXA-40) of 8300 nM, an IC50 (P99 ampC) of 730 nM and an IC50 (PAE ampC) of 280 nM. For the same compound, the IC50 (SHV-1) was 12 nM, the IC50 (OXA-1) was 2100 nM and the MIC ([1]; SMA UFR30, alone) was 16 µg/mL. For the same compound, the MIC ([1]; SMA UFR134, alone) was 16 µg/mL, the MIC ([1]; SMA UFR135, alone) was > 32 µg/mL and the MIC ([1]; SMA UFR136, alone) was > 32 µg/mL. The MIC ([1]; SMA UFR137, alone) was 16 µg/mL, the MIC ([1]; SMA UFR138, alone) was 16 µg/mL and the MIC ([1]; SMA UFR139, alone) was > 32 µg/mL. The MIC ([1]; SMA UFR141, alone) was > 32 µg/mL, the MIC ([1]; SMA UFR142, alone) was 32 µg/mL and the MIC ([1]; SMA UFR143, alone) was 32 µg/mL. For the same compound, the MIC ([1]; SMA UFR239, alone) was 32 µg/mL, the MIC [1, 4] was > 32 µg/mL and the MIC [1, 5] was 16 µg/mL. It also gave an MIC ([2]; BAA1898, KPN BAA-1898, alone) of 8 µg/mL, an MIC ([2]; KPN 6299, alone) of 16 µg/mL and an MIC ([2]; KPN 110376, alone) of 8 µg/mL. The MIC ([2]; KPN 121206, alone) was 16 µg/mL, the MIC ([2]; KPN 131119, alone) was 8 µg/mL and the MIC ([2]; KPN 140513, alone) was 32 µg/mL. It also gave an MIC ([2]; KPN 160143, alone) of 8 µg/mL, an MIC ([2]; KPN 190128, alone) of 16 µg/mL and an MIC ([2]; KPN 190270, alone) of 16 µg/mL. For the same compound, the MIC ([2]; KPN 190425, alone) was 16 µg/mL, the MIC ([2]; KPN 190551, alone) was 4 µg/mL and the MIC ([2]; KPN 200047, alone) was 4 µg/mL. For the same compound, the MIC ([2]; KPN 200327, alone) was 4 µg/mL, the MIC ([2]; KPN 260251, alone) was 16 µg/mL and the MIC ([2]; KPN 260252, alone) was 16 µg/mL. The MIC ([2]; KPN 260376, alone) was 4 µg/mL, the MIC ([2]; KPN 270077, alone) was > 32 µg/mL and the MIC ([2]; KPN 700603, alone) was 32 µg/mL. It also gave an MIC ([2]; KPN ARA, alone) of 8 µg/mL, an MIC ([2]; KPN LIB, alone) of 8 µg/mL and an MIC ([2]; KPN UFR22_O, alone) of 8 µg/mL. For the same compound, the MIC ([2]; KPN UFR23, alone) was 16 µg/mL, the MIC ([2]; KPN UFR24, alone) was 16 µg/mL and the MIC ([2]; KPN UFR25, alone) was 8 µg/mL. For the same compound, the MIC ([2]; KPN UFR27, alone) was 16 µg/mL, the MIC ([2]; KPN UFR43, alone) was 8 µg/mL and the MIC ([2]; KPN UFR46, alone) was 32 µg/mL. The MIC ([2]; KPN UFR53, alone) was 16 µg/mL, the MIC ([2]; KPN UFR68, alone) was 16 µg/mL and the MIC ([2]; KPN UFR76, alone) was > 32 µg/mL. For the same compound, the MIC ([2]; KPN UFR77, alone) was 8 µg/mL, the MIC ([2]; KPN UFR78, alone) was 32 µg/mL and the MIC ([2]; KPN UFR79, alone) was 16 µg/mL. The MIC ([2]; KPN UFR80, alone) was 16 µg/mL, the MIC ([2]; KPN UFR81, alone) was 16 µg/mL and the MIC ([2]; KPN UFR215, alone) was 32 µg/mL. The MIC ([2]; KPN UFR216, alone) was 8 µg/mL, the MIC ([2]; KPN UFR217, alone) was 8 µg/mL and the MIC ([2]; KPN UFR218, alone) was 4 µg/mL. For the same compound, the MIC ([2]; KPN UFR222, alone) was 8 µg/mL, the MIC ([2]; KPN UFR227O, alone) was > 32 µg/mL and the MIC [2, 6] was 32 µg/mL. The MIC [2, 7] was 16 µg/mL, the MIC [2, 8] was 16 µg/mL and the MIC [2, 9] was 16 µg/mL. For the same compound, the MIC [2, 10] was 16 µg/mL, the MIC [2, 11] was 32 µg/mL and the MIC [2, 12] was > 32 µg/mL. The MIC [2, 13] was 16 µg/mL, the MIC [2, 14] was > 32 µg/mL and the MIC [2, 15] was 16 µg/mL. For the same compound, the MIC [2, 16] was 8 µg/mL, the MIC [2, 17] was 8 µg/mL and the MIC [2, 18] was 16 µg/mL. The MIC [3] was 16 µg/mL and the IC50 (CTX-M-15) was 1.5 nM.

Source: patent US20200017495A1, “NOVEL HETEROCYCLIC COMPOUNDS AND THEIR USE IN PREVENTING OR TREATING BACTERIAL INFECTIONS” (priority 2017, published 2020)
